Tests used:
[1] = test system: corn; test: Test Example 2: soil surface treatment, upland pot test; assay type: in vivo, Zea mays L.; details: observed 20th to 28th day
Procedure, shortened: (§1)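 Pots (1/170,000 ha) filled with upland field soil were seeded, then treated on the following day by spraying the soil surface with diluted formulation (1,500 L/ha) at a fixed a.i. dose. Control was rated visually on a 0–100% scale at 20–28 days.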

[2] = test system: wheat; test: as above; assay type: in vivo, Triticum spp.; details: observed 20th to 28th day
Text: Upland field soil was put into a 1/170,000 ha pot, and seed of various plants (barnyardgrass, crabgrass, green foxtail, redroot pigweed, prickly sida, velvetleaf, rice, wheat, corn, soybean) were sown. On the 1st day after the sowing, a wettable powder or emulsifiable concentrate having the compound of the present invention formulated in accordance with a usual formulation method, was weighed so that the active ingredient would be a predetermined amount, and diluted with water in an amount of 1,500 L/ha. The herbicide thus adjusted was applied by a small size sprayer for soil surface treatment. On the 20th to 28th days after the application of the herbicide, the growth of the respective plants was visually observed, and the herbicidal effects were evaluated by the growth controlling degrees (%) ranging from 0 (equivalent to the non-treated plot) to 100 (complete kill), whereby the results shown in Table 4, were obtained.

[3] = test system: crabgrass; test: as above; assay type: in vivo, Digitaria sanguinalis L.; details: observed 20th to 28th day
Procedure, shortened: as §1

[4] = test system: japanese ribbon wapato; test: Test Example 3: paddy pot test, application under submerged conditions; assay type: in vivo, Sagittaria pygniaea; details: submerged application at primary leaf stage, visually observed 14 days after application, 0 = non-treated, 100 = complete kill
Procedure, shortened: (§2)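 After sowing seeds and planting wapato tubers in flooded paddy soil, an aqueous dilution of the formulated compound was added to the 3–4 cm flood water at early leaf stage. Percent growth control relative to the untreated plot was assessed visually on day 14.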

[5] = test system: japanese bulrush; test: as above; assay type: in vivo, Scirpus juncoides; details: submerged application at 0.5 leaf stage, visually observed 14 days after application, 0 = non-treated, 100 = complete kill
Procedure, shortened: as §2

[6] = test system: soybean; test: Test Example 2: soil surface treatment, upland pot test; assay type: in vivo, Glycine max Merr.; details: observed 20th to 28th day
Procedure, shortened: as §1

[7] = test system: rice; test: as above; assay type: in vivo, Oryza sativa L.; details: observed 20th to 28th day
Procedure, shortened: as §1

[8] = test system: prickly sida; test: as above; assay type: in vivo, Sida spinosa L.; details: observed 20th to 28th day
Procedure, shortened: as §1

[9] = test system: redroot pigweed; test: as above; assay type: in vivo, Amaranthus retroflexus L.; details: observed 20th to 28th day
Procedure, shortened: as §1

[10] = test system: velvetleaf; test: as above; assay type: in vivo, Abutilon theophrasti MEDIC.; details: observed 20th to 28th day
Procedure, shortened: as §1

[11] = test system: rice (var. Nihonbare); test: Test Example 3: paddy pot test, transplanted rice; assay type: in vivo, Oryza sativa L.; details: applied 4th day after transplantation, visually observed 21st day after application, 0 = non-treated, 100 = complete kill
Procedure, shortened: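 Rice (2-leaf stage) was transplanted 3 cm deep into puddled, leveled paddy soil under 3–4 cm flooding. On day 4 after transplanting, diluted wettable powder or emulsifiable concentrate was pipetted onto the water at a predetermined active-ingredient dose. Growth control (0 = untreated, 100 = complete kill) was scored visually 21 days later.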

[12] = test system: green foxtail; test: Test Example 2: soil surface treatment, upland pot test; assay type: in vivo, Setaria viridis L.; details: observed 20th to 28th day
Procedure, shortened: as §1

[13] = test system: barnyardgrass; test: as above; assay type: in vivo, Echinochloa crus-galli L.; details: observed 20th to 28th day
Procedure, shortened: as §1

[14] = test system: barnyardgrass; test: Test Example 3: paddy pot test, application under submerged conditions; assay type: in vivo, Echinochloa crus-galli L.; details: submerged application at 0.5 leaf stage, visually observed 14 days after application, 0 = non-treated, 100 = complete kill
Procedure, shortened: as §2

[15] = active ingredient 1000 g/ha, 0 = non-treated, 100 = complete kill

Structure (SMILES)	Growth controlling degree (%) Japanese ribbon wapato ([4]; active ingredient 500 g/ha) [%]	Growth controlling degree (%) Japanese bulrush ([5]; active ingredient 500 g/ha) [%]	Growth controlling degree (%) Rice ([11]; active ingredient 500 g/ha) [%]	Growth controlling degree (%) Corn ([1]; active ingredient 1000 g/ha) [%]	Growth controlling degree (%) wheat ([2]; active ingredient 1000 g/ha) [%]	Growth controlling degree (%) Crabgrass ([3]; active ingredient 1000 g/ha) [%]	Growth controlling degree (%) Soyabean ([6]; active ingredient 1000 g/ha) [%]	Growth controlling degree (%) Rice ([7]; active ingredient 1000 g/ha) [%]	Growth controlling degree (%) Prickly sida ([8]; active ingredient 1000 g/ha) [%]	Growth controlling degree (%) Redroot pigweed ([9]; active ingredient 1000 g/ha) [%]	Growth controlling degree (%) Velvetleaf ([10]; active ingredient 1000 g/ha) [%]	Growth controlling degree (%) Green foxtail ([12]; active ingredient 1000 g/ha) [%]	Growth controlling degree (%) Barnyardgrass ([14]; active ingredient 500 g/ha) [%]	Growth controlling degree (%) Barnyardgrass [13, 15] [%]	also measured
CC(C)C(c1cnccc1Cl)N(C)C(=O)Cc1ccccc1 (stereo not shown) [I-22]	95	95	0												Growth controlling degree (%) Corn ([1]; active ingredient 500 g/ha): 20%; Growth controlling degree (%) wheat ([2]; active ingredient 500 g/ha): 30%; Growth controlling degree (%) Crabgrass ([3]; active ingredient 500 g/ha): 95%; Growth controlling degree (%) Soyabean ([6]; active ingredient 500 g/ha): 10%; Growth controlling degree (%) Rice ([7]; active ingredient 500 g/ha): 10%; Growth controlling degree (%) Prickly sida ([8]; active ingredient 500 g/ha): 70%; Growth controlling degree (%) Redroot pigweed ([9]; active ingredient 500 g/ha): 90%; Growth controlling degree (%) Velvetleaf ([10]; active ingredient 500 g/ha): 70%; Growth controlling degree (%) Green foxtail ([12]; active ingredient 500 g/ha): 90%; Growth controlling degree (%) Barnyardgrass ([13]; active ingredient 500 g/ha): 90%
COC(=O)NC(c1cnccc1C(F)(F)F)c1cccc2ccccc12 (stereo not shown) [Compound I-45]	60	90	30	20	30	90	0	50	40	40	40	60	85	0	
CC(C)C(NC(=O)Cc1c(F)cccc1F)c1cnccc1C(F)(F)F (stereo not shown) [Compound I-5]	50	90	20	20	10	90	10	10	0	0	0	70	60	30	
CC(C)C(NC(=O)Cc1ccccc1)c1cnccc1C(F)(F)F (stereo not shown) [Compound I-3]				0	0	90	0	10	10	20	0	90		0	Growth controlling degree (%) Japanese ribbon wapato ([4]; active ingredient 1000 g/ha): 30%; Growth controlling degree (%) Japanese bulrush ([5]; active ingredient 1000 g/ha): 98%; Growth controlling degree (%) Rice ([11]; active ingredient 1000 g/ha): 20%; Growth controlling degree (%) Barnyardgrass ([14]; active ingredient 1000 g/ha): 90%
CCC(=O)NC(c1cnccc1C(F)(F)F)c1cccc2ccccc12 (stereo not shown) [Compound I-42]	10	95	30	10	30	90	0	0	0	0	0	90	70	70	
CN(C(=O)Cc1cccs1)C(c1cnccc1C(F)(F)F)c1cccc2ccccc12 (stereo not shown) [Compound I-48]	0	30	10										100		Growth controlling degree (%) Corn ([1]; active ingredient 2000 g/ha): 10%; Growth controlling degree (%) wheat ([2]; active ingredient 2000 g/ha): 30%; Growth controlling degree (%) Crabgrass ([3]; active ingredient 2000 g/ha): 70%; Growth controlling degree (%) Soyabean ([6]; active ingredient 2000 g/ha): 0%; Growth controlling degree (%) Rice ([7]; active ingredient 2000 g/ha): 20%; Growth controlling degree (%) Prickly sida ([8]; active ingredient 2000 g/ha): 20%; Growth controlling degree (%) Redroot pigweed ([9]; active ingredient 2000 g/ha): 30%; Growth controlling degree (%) Velvetleaf ([10]; active ingredient 2000 g/ha): 40%; Growth controlling degree (%) Green foxtail ([12]; active ingredient 2000 g/ha): 100%; Growth controlling degree (%) Barnyardgrass ([13]; active ingredient 2000 g/ha): 20%
CC(C)C(c1cnccc1C(F)(F)F)N(C)C(=O)Cc1cccc(F)c1 (stereo not shown) [Compound I-20]	90	90	40												Growth controlling degree (%) Corn ([1]; active ingredient 500 g/ha): 70%; Growth controlling degree (%) wheat ([2]; active ingredient 500 g/ha): 40%; Growth controlling degree (%) Crabgrass ([3]; active ingredient 500 g/ha): 100%; Growth controlling degree (%) Soyabean ([6]; active ingredient 500 g/ha): 30%; Growth controlling degree (%) Rice ([7]; active ingredient 500 g/ha): 0%; Growth controlling degree (%) Prickly sida ([8]; active ingredient 500 g/ha): 100%; Growth controlling degree (%) Redroot pigweed ([9]; active ingredient 500 g/ha): 95%; Growth controlling degree (%) Velvetleaf ([10]; active ingredient 500 g/ha): 100%; Growth controlling degree (%) Green foxtail ([12]; active ingredient 500 g/ha): 100%; Growth controlling degree (%) Barnyardgrass ([13]; active ingredient 500 g/ha): 100%
CC(C)C(NC(=O)Cc1ccc(Br)cc1)c1cnccc1C(F)(F)F (stereo not shown) [Compound I-8]	10	90	0	10	30	50	30	10	50	80	0	50	90	50	
CC(C)C(c1cnccc1C(F)(F)F)N(C)C(=O)Cc1ccc(Br)cc1F (racemic) [Compound I-137]															Growth controlling degree (%) Corn ([1]; active ingredient 250 g/ha): 10%; Growth controlling degree (%) wheat ([2]; active ingredient 250 g/ha): 30%; Growth controlling degree (%) Crabgrass ([3]; active ingredient 250 g/ha): 98%; Growth controlling degree (%) Japanese bulrush ([5]; active ingredient 250 g/ha): 98%; Growth controlling degree (%) Soyabean ([6]; active ingredient 250 g/ha): 20%; Growth controlling degree (%) Rice ([7]; active ingredient 250 g/ha): 40%; Growth controlling degree (%) Prickly sida ([8]; active ingredient 250 g/ha): 50%; Growth controlling degree (%) Redroot pigweed ([9]; active ingredient 250 g/ha): 50%; Growth controlling degree (%) Velvetleaf ([10]; active ingredient 250 g/ha): 50%; Growth controlling degree (%) Rice ([11]; active ingredient 250 g/ha): 0%; Growth controlling degree (%) Green foxtail ([12]; active ingredient 250 g/ha): 100%; Growth controlling degree (%) Barnyardgrass ([14]; active ingredient 250 g/ha): 100%; Growth controlling degree (%) Barnyardgrass ([13]; active ingredient 250 g/ha): 98%
CC(=O)N(C)C(c1cnccc1C(F)(F)F)C(C)C (stereo not shown) [I-208]															Growth controlling degree (%) Corn ([1]; active ingredient 250 g/ha): 70%; Growth controlling degree (%) wheat ([2]; active ingredient 250 g/ha): 80%; Growth controlling degree (%) Crabgrass ([3]; active ingredient 250 g/ha): 100%; Growth controlling degree (%) Japanese bulrush ([5]; active ingredient 250 g/ha): 98%; Growth controlling degree (%) Soyabean ([6]; active ingredient 250 g/ha): 60%; Growth controlling degree (%) Rice ([7]; active ingredient 250 g/ha): 100%; Growth controlling degree (%) Prickly sida ([8]; active ingredient 250 g/ha): 80%; Growth controlling degree (%) Redroot pigweed ([9]; active ingredient 250 g/ha): 90%; Growth controlling degree (%) Velvetleaf ([10]; active ingredient 250 g/ha): 50%; Growth controlling degree (%) Rice ([11]; active ingredient 250 g/ha): 70%; Growth controlling degree (%) Green foxtail ([12]; active ingredient 250 g/ha): 100%; Growth controlling degree (%) Barnyardgrass ([14]; active ingredient 250 g/ha): 98%; Growth controlling degree (%) Barnyardgrass ([13]; active ingredient 250 g/ha): 100%

Source: patent US20050239656A1, “Pyridine compounds or salts thereof and herbicides containing the same” (priority 2002, published 2005)
